How the values were obtained:
Assay in all cases: relative viability (nuclei count vs DMSO), 5 days (fraction); higher = more cells survive
[1] = compound: Cc1ccc(-n2nc(C(C)(C)C)cc2NC(=O)Nc2ccc(OCCN3CCOCC3)c3ccccc23)cc1 [Doramapimod] + CC(=O)c1c(C)c2cnc(Nc3ccc(N4CCNCC4)cn3)nc2n(C2CCCC2)c1=O [Palbociclib] (partner 0.5 µM)
Outline: (§1)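 For relative viability, nuclei counts in treated wells were divided by those in vehicle wells. Lung cancer cell lines had been pin-tool dosed in 1536-well plates the day after seeding and cultured for 5 days, then fixed and stained in one step (final 0.05% Triton X-100, 1% formaldehyde, 1 ug/ml Hoechst) and imaged at 4×. Doses were one drug alone or a fixed anchor-drug dose plus five library-drug doses (not always all listed) in √10 steps, and values are duplicate-plate medians.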

[2] = compound: Cc1ccc(-n2nc(C(C)(C)C)cc2NC(=O)Nc2ccc(OCCN3CCOCC3)c3ccccc23)cc1 [Doramapimod] + C[C@]1(O)C[C@@H](c2nc(-c3ccc4ccc(-c5ccccc5)nc4c3)c3c(N)nccn32)C1 [Linsitinib] (partner 1 µM)
Outline: as §1

[3] = compound: Cc1ccc(-n2nc(C(C)(C)C)cc2NC(=O)Nc2ccc(OCCN3CCOCC3)c3ccccc23)cc1 [Doramapimod] + O=C(CCCCCCC(=O)Nc1ccccc1)NO [Vorinostat] (partner 1 µM)
Outline: as §1

[4] = compound: Cn1c(Nc2ccc(C(F)(F)F)cc2)nc2cc(Oc3ccnc(-c4ncc(C(F)(F)F)[nH]4)c3)ccc21 [RAF265] + C[C@]1(O)C[C@@H](c2nc(-c3ccc4ccc(-c5ccccc5)nc4c3)c3c(N)nccn32)C1 [Linsitinib] (partner 1 µM)
Outline: as §1

Row | Cell Line | relative viability ([1]; first compound 0.02 µM) | relative viability ([1]; first compound 0.06325 µM) | relative viability ([1]; first compound 0.2 µM) | relative viability ([1]; first compound 0.6325 µM) | relative viability ([1]; first compound 2 µM) | relative viability ([2]; first compound 0.02 µM) | relative viability ([2]; first compound 0.06325 µM) | relative viability ([2]; first compound 0.2 µM) | relative viability ([2]; first compound 0.6325 µM) | relative viability ([2]; first compound 2 µM) | relative viability ([3]; first compound 0.02 µM) | relative viability ([3]; first compound 0.06325 µM) | relative viability ([3]; first compound 0.2 µM) | relative viability ([3]; first compound 0.6325 µM) | relative viability ([3]; first compound 2 µM) | relative viability ([4]; first compound 0.01 µM) | relative viability ([4]; first compound 0.03162 µM) | relative viability ([4]; first compound 0.1 µM) | relative viability ([4]; first compound 0.3162 µM) | relative viability ([4]; first compound 1 µM)
1 | NCI-H1793 | 0.317 | 0.293 | 0.283 | 0.287 | 0.273 | 0.758 | 0.76 | 0.827 | 0.932 | 0.719 | 0.718 | 0.708 | 0.673 | 0.749 | 0.519 | 0.794 | 0.767 | 0.779 | 0.46 | 0.376
2 | NCI-H2009 | 0.26 | 0.262 | 0.3 | 0.314 | 0.247 | 1.21 | 1.23 | 1.3 | 1.23 | 1.16 | 0.765 | 0.745 | 0.762 | 0.92 | 0.777 | 1.23 | 1.12 | 1.13 | 1.04 | 0.788
3 | ABC-1 | 0.642 | 0.732 | 0.683 | 0.845 | 0.817 | 0.876 | 0.944 | 0.744 | 0.942 | 0.806 | 1.25 | 1.29 | 1.21 | 0.865 | 1.15 | 0.875 | 0.803 | 0.933 | 0.661 | 0.407
4 | IA-LM | – | – | – | – | – | 0.498 | 0.549 | 0.701 | 0.587 | 0.731 | 0.988 | 0.868 | 0.86 | – | 0.745 | 0.641 | 0.532 | 0.536 | 0.732 | 0.404
5 | NCI-H322M | 0.458 | 0.492 | 0.483 | 0.554 | 0.486 | 0.851 | 0.834 | 0.909 | 1.01 | 0.874 | 0.889 | 0.943 | 0.979 | 0.998 | 0.94 | 0.929 | 0.807 | 0.662 | 0.377 | 0.256
6 | NCI-H1792 | 0.701 | 0.645 | 0.598 | 0.596 | 0.546 | 0.434 | 0.434 | 0.536 | 0.615 | 0.351 | – | – | – | – | – | 0.576 | 0.506 | 0.583 | 0.326 | 0.126
7 | LXF-289 | 0.6 | 0.586 | 0.615 | 0.567 | 0.63 | 0.961 | 0.92 | 0.896 | 0.933 | 0.939 | 0.811 | 0.775 | 0.747 | 0.723 | 0.635 | 0.916 | 0.919 | 0.947 | 0.815 | 0.792
8 | NCI-H522 | 1.02 | 1.04 | 1.03 | 0.954 | 0.817 | – | – | – | – | – | 0.963 | 1.05 | 0.871 | 0.845 | 0.874 | – | – | – | – | –
9 | NCI-H1299 | – | – | – | – | – | 1 | 1.04 | 1.01 | 1.06 | 0.985 | – | – | – | – | – | 1 | 0.878 | 0.749 | 0.578 | 0.414
10 | NCI-H1563 | – | – | – | – | – | 1.17 | 1.23 | 1.25 | 1.25 | 1.2 | – | – | – | – | – | 1.13 | 1.32 | 1.17 | 1.26 | 1.18
11 | NCI-H1650 | 0.411 | 0.363 | 0.428 | 0.425 | 0.35 | – | – | – | – | – | 0.571 | 0.586 | 0.553 | 0.729 | 0.528 | – | – | – | – | –
12 | NCI-H596 | – | – | – | – | – | 0.99 | 1.03 | 1.02 | 1.05 | 1 | 0.643 | 0.672 | 0.616 | 0.605 | 0.561 | 1.05 | 0.97 | 1.1 | 1.09 | 0.657
13 | Calu-6 | – | – | – | – | – | 1.02 | 0.978 | 0.942 | 1.04 | 0.966 | – | – | – | – | – | 0.94 | 0.83 | 0.523 | 0.279 | 0.223
14 | NCI-H1703 | – | – | – | – | – | 0.637 | 0.601 | 0.68 | 0.908 | 0.532 | – | – | – | – | – | 0.43 | 0.561 | 0.819 | 0.171 | 0.251
15 | EBC-1 | – | – | – | – | – | 0.924 | 0.811 | 0.826 | 0.937 | 0.817 | – | – | – | – | – | 0.963 | 0.856 | 0.754 | 0.577 | 0.503
16 | NCI-H1648 | 0.262 | 0.293 | 0.248 | 0.249 | 0.234 | – | – | – | – | – | 0.348 | 0.405 | 0.52 | 0.709 | 0.224 | – | – | – | – | –
17 | ChaGo-K-1 | 0.928 | 0.906 | 0.918 | 0.942 | 0.823 | – | – | – | – | – | 0.778 | 0.769 | 0.689 | 0.596 | 0.64 | – | – | – | – | –
18 | SW 900 | 0.57 | 0.537 | 0.558 | 0.584 | 0.531 | – | – | – | – | – | 0.571 | 0.514 | 0.546 | 0.584 | 0.436 | – | – | – | – | –
19 | NCI-H2342 | 0.523 | 0.585 | 0.632 | 0.524 | 0.535 | – | – | – | – | – | 0.761 | 0.747 | 0.806 | 0.849 | 0.829 | – | – | – | – | –
20 | A549 | – | – | – | – | – | 0.551 | 0.532 | 0.567 | 0.794 | 0.523 | – | – | – | – | – | 0.61 | 0.536 | 0.648 | 0.273 | 0.249

From the supplement of paper PMC10307832
